Patent publication US20200206198A1, “CFTR CHANNEL ACTIVATOR FOR USE IN THE TREATMENT AND/OR PREVENTION OF GLUTEN SENSITIVITY CONDITIONS” (priority 2017, published 2020)

Tested on: Caco-2 cells
Test: P31-43-induced epithelial stress markers in Caco-2 cells (immunoblot)
Type: cell-based, human
Description: Human colon adenocarcinoma-derived Caco-2 and T84 cells were obtained from the ATCC. Cells were maintained in T25 flask in Modified Eagle Medium (MEM) for Caco-2, or Ham's F12+DMEM (1:1) for T84, supplemented with 10% fetal bovine serum (FBS), 2 mM Glutamine+1% Non Essential Amino Acids (NEAA) and the antibiotics penicillin\streptomycin (100 units/ml) (all reagents from Lonza) (Luciani, A., et al. 2010. Cells were grown in Transwells (Corning, 3470 or 3460) under the normal condition (Luciani, A., et al. 2012). Briefly, 8×10^4 or 5×10^5 cells were seeded in 6.5-mm diameter or 12-mm diameter, respectively, and grown until the RT reached 800 to 1,200 Ω·cm2. Transwells with a pore size of 0.4 μm were used. Medium in both the apical and basolateral chambers was changed every other day. Cells were treated with 20 μg/ml of either α-gliadin peptide P31-43 or […]-69 or scrambled PGAV or modified P31-43 either biotin-tagged or not, for different time point (from 1 h short challenge up to 24 h). Cells were also treated with 50 or 100 μg/ml of […]-68 or PGAV peptides for 3 h. Caco-2 or T84 cells were also treated with: CFTR potentiators VX-770 (10 μM) or VX-532 (20 μM) (Selleck chemicals) or Genistein (10 μM) (Sigma-Aldrich) or in presence or absence of CFTR inhibitor172 (CFTRinh172, 20 μM) or 3-methyl-adenine (3-MA, 20 μM) (Calbiochem), Z-DON (20 nM, Zedira) or BAPTA-AM (10 μM, Calbiochem). The whole lysate or membrane fraction proteins of cell lines and mice intestine homogenates were obtained from treated and untreated cells or mice as described. The equal amount of protein were resolved by SDS-PAGE gel and blotted with antibodies against: SQSTM1, (Sigma Aldrich, 108k4767) 1:1000, PPARγ (Santa Cruz Biotechnology, sc7273) 1:500, BECN1 (Abcam, ab58878) 1:1000, CFTR clone M3A7 (Abcam, ab4067) 1:500, phospho-ERK1/2 (php42/44, Cell Signaling Technology, #91101) 1:1000, UVRAG (Santa Cruz Biotechnology sc8215) 1:1000, NHERF-1 (BD, 611161) 1:1000, EZRIN (BD, 610603) 1:1000, hVps34 (SigmaV9764) 1:300, biotin (Abcam, ab1227) 1:2000, PKAr2a (BD, 610625) 1:500, Ubiquitin (Cell Signaling clone P4D1, #3936) 1:1000, CHIP (Calbiochem PC711) 1:500, Caspase-1 p10 (M-20) (Santa Cruz Biotechnology, sc-514) 1:200, NLRP3 (Abcam, ab4207), 1:500, IDO1 (monoclonal; cv152) 1:1000^[80], used as primary antibodies. Normalization was performed by probing the membrane with anti-β-actin (Cell Signaling, #4970) 1:1000, anti-Gapdh (Sigma-Aldrich, G8795) 1:1000 and anti-flottilin (Abcam ab15148) 1:1000 antibodies. Immunoprecipitations of endogenous proteins were performed on 500 μg of lysates from Caco-2 cells. The proteins were incubated for 12-18 h at 4° C. with 10 ug\ml of specific antibody followed by the addition of Protein A/G-agarose beads for 4 h at 4° C. The beads were then washed three times with lysis buffer and Laemmli's sample buffer was added to the samples. The membranes were then blotted with: CFTR clone CF3 (Abcam, ab2784) 1:1000, TG2 (clone CUB7402; NeoMarkers) 1:1000, CHIP (Calbiochem PC711) 1:500, Ubiquitin (Cell Signaling clone P4D1 3936), isopeptide (Abcam 422) 1:1000, PKAR2 (BD 610625) 1:500. FIG. 5: a, Immunoprecipitation of TG2 protein 15 in Caco-2 cells challenged with […]-68, PGAV or P31-43 and blotted with HRP-streptavidin. b, Immunoprecipitation of CFTR protein in Caco-2 cells challenged with P31-43 in the presence of absence of the TG2 inhibitor ZDON or TG2 RNA silencing and 20 blotted with anti-isopeptide glutamime-lysine and anti-TG2 antibodies. c, Recombinant TG2 and/or NBD1 incubated in vitro with P31-43 and solved in native page in the presence or absence of Ca2+. d, Immunoprecipitation of CFTR protein and immunblot with anti-CFTR antibodies or anti-TG2 antibodies. e, Immunoprecipitation of CFTR protein and immunoblot with anti-TG2 or anti-CFTR antibodies; effects of ZDON and BAPTA-AM. f, In situ detection of TG2 activity in Caco-2 cells pulsed with Ca2+ in the presence or absence of VX-770 or Z-DON. […]

Compound	effect on P31-43-induced PKAr2a cross-linking and phospho-PKA decrease	protection from P31-43-induced downregulation of PPARγ	protection from P31-43-induced phosphorylation of ERK-1/2	protection from P31-43-induced upregulation of HSP70 expression	TG2-mediated cross-linking of PKAr2a	abundance of phosphorylated PKA protein
CC(C)(C)c1cc(C(C)(C)C)c(NC(=O)c2c[nH]c3ccccc3c2=O)cc1O [VX-770, N-(2,4-di-tert-butyl-5-hydroxyphenyl)-4-oxo-1,4-dihydroquinoline-3-carboxamide]	counteracted all these TG2-mediated effects of P31-43	protected	protected	protected		
α-gliadin peptide LGQQQPFPPQQPY (SEQ ID 1), induces an enterocyte stress response (P31-43 sequence of alpha-gliadin)					stimulated TG2-mediated cross-linking	decrease in the abundance of phosphorylated PKA protein
